The nature of series [1]: Solubility in 100 mM glycylglycine buffer at pH 3.0 incubated for 18 hrs by UPLC analysis. In kind it is physicochemical.
In series [2] the target is T1, Calcitonin receptor (Homo sapiens, UniProt P30988).
T1 sequence (P30988 whole entry): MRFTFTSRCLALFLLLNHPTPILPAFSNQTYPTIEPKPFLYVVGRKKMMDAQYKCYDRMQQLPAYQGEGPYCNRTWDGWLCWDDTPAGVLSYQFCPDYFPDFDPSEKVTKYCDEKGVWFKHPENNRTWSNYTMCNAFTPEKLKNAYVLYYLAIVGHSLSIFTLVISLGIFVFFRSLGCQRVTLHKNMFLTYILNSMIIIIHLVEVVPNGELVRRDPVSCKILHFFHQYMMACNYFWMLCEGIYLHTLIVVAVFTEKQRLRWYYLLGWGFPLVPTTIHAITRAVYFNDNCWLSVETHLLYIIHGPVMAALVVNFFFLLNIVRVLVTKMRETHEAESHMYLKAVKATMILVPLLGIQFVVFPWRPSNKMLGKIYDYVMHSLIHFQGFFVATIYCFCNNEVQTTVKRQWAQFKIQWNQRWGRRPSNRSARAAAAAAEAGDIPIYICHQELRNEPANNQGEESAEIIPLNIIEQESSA
Kind of series: Agonist activity at human calcitonin receptor expressed in BHK570 cells assessed as increase in intracellular cAMP concentration incubated for 3 hrs in absence of albumin by CRE luciferase reporter gene assay. In kind it is functional, cell-based. A general note: In a reporter assay the amount or activity of a reporter protein is the signal.

For series [3], the system named is Rattus norvegicus. Kind of series: Reduction in food intake in Sprague-Dawley rat at 3 nmol/kg measured 0 to 24 hrs post dose relative to control. More on the design: scale not given: the % may be the effect or the level left. The class given is functional.
Series [4] is described as follows: Solubility in 100 mM glycylglycine buffer at pH 5.0 incubated for 18 hrs by UPLC analysis. The class given is physicochemical.
In series [5] the target is T2, Amylin receptor AMY3; CALCR/RAMP3 (Homo sapiens, UniProt O60896+P30988).
T2 sequence (P30988 whole entry): T1 sequence (P30988 whole entry)
T2 sequence (O60896 whole entry): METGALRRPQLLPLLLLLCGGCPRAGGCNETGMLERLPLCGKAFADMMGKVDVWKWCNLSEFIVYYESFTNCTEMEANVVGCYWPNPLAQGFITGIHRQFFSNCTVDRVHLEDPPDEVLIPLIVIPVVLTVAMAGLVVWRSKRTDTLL
Kind of series: Agonist activity at human amylin receptor expressed in BHK570 cells co-expressing RAMP3 assessed as increase in intracellular cAMP concentration incubated for 3 hrs in absence of albumin by CRE luciferase reporter gene assay. The class given is functional, cell-based.

Series [6] concerns the target T2, Amylin receptor AMY3; CALCR/RAMP3. Briefly: Displacement of [125I]-labeled rat amylin from human amylin receptor expressed in BHK tkts13 whole cells co-expressing RAMP3 incubated for 60 mins by scintillation proximity assay. The class given is cell-based. In general terms: Loss of bound radioactivity is the signal in a displacement assay; it reports binding, not function.

Series [7] in a line: Stability in pH 7.5 buffer assessed as lag time for fibril formation at 1 uM by Thioflavin T based fluorescence assay. The class given is physicochemical. Particulars: pH 7.5, 1 µM.
Series [8] can be described thus: Solubility in 100 mM glycylglycine buffer at pH 4.0 incubated for 18 hrs by UPLC analysis. The class given is physicochemical.
Series [9] deals with T1, Calcitonin receptor. Kind of series: Displacement of [125I]-labeled human calcitonin from human calcitonin receptor expressed in BHK tkts13 whole cells incubated for 60 mins by scintillation proximity assay. In kind it is cell-based.
Series [10] is described as follows: Stability in pH 7.5 buffer assessed as compound recovery at 1 uM by Thioflavin T based fluorescence assay. Particulars: read-out: Drug recovery. In kind it is physicochemical.
Series [11] deals with T1, Calcitonin receptor. Kind of series: Agonist activity at human calcitonin receptor expressed in BHK570 cells assessed as increase in intracellular cAMP concentration incubated for 3 hrs in presence of 10% FBS by CRE luciferase reporter gene assay. The class given is functional, cell-based.
Series [12] in a line: Solubility in 100 mM bistrispropane buffer at pH 8.0 incubated for 18 hrs by UPLC analysis. In kind it is physicochemical.
The test system of series [13] is Rattus norvegicus. Briefly: Reduction in food intake in Sprague-Dawley rat at 3 nmol/kg measured 24 to 48 hrs post dose relative to control. The class given is functional. More on the design: scale not given: the % may be the effect or the level left.
Series [14] can be described thus: Solubility in 100 mM bistrispropane buffer at pH 7.5 incubated for 18 hrs by UPLC analysis. In kind it is physicochemical.
Series [15] in a line: Solubility in 100 mM bistrispropane buffer at pH 6.0 incubated for 18 hrs by UPLC analysis. The class given is physicochemical.
A short description of series [16]: Solubility in 100 mM bistrispropane buffer at pH 7.0 incubated for 18 hrs by UPLC analysis. In kind it is physicochemical.
The nature of series [17]: Solubility in 100 mM bistrispropane buffer at pH 6.5 incubated for 18 hrs by UPLC analysis. The class given is physicochemical.
For series [18], the target named is T2, Amylin receptor AMY3; CALCR/RAMP3. Briefly: Agonist activity at human amylin receptor expressed in BHK570 cells co-expressing RAMP3 assessed as increase in intracellular cAMP concentration incubated for 3 hrs in presence of 10% FBS by CRE luciferase reporter gene assay. In kind it is functional, cell-based.
Series [19] concerns the target T3, Amylin receptor AMY3; CALCR/RAMP3 (Rattus norvegicus, UniProt P32214+Q9JJ73).
T3 sequence (P32214 whole entry): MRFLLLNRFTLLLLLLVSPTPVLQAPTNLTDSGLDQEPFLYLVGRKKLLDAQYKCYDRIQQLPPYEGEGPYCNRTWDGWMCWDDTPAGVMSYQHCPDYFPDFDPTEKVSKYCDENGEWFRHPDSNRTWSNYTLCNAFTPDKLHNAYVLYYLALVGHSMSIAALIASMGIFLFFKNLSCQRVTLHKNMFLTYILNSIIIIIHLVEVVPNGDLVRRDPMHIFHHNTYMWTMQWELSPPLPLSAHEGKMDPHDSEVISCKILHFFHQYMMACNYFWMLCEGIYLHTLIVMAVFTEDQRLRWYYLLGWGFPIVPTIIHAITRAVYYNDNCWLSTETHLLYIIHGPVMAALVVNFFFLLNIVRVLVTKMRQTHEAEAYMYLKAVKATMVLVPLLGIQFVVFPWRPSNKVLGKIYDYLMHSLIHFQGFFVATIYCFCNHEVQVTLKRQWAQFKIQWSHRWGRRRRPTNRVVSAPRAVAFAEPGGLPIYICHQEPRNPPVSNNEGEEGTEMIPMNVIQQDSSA
T3 sequence (Q9JJ73 whole entry): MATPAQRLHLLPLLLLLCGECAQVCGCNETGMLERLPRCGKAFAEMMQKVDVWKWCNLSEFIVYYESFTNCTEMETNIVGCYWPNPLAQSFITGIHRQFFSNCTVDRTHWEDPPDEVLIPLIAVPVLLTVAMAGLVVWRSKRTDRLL
Kind of series: Displacement of [125I]-labeled rat amylin from rat amylin receptor expressed in BHK tkts13 cell membranes co-expressing RAMP3 incubated for 120 mins by scintillation proximity assay.

Series [20] concerns the target T1, Calcitonin receptor. Briefly: Displacement of [125I]-labeled human calcitonin from human calcitonin receptor expressed in BHK tkts13 cell membranes incubated for 1 hr by scintillation proximity assay.

We go through three compounds from ChEMBL document CHEMBL4420076, “Amylin and calcitonin receptor agonist” (2017).

pEC50, pIC50: −log10 of the molar value. Numbered stars: 1 amine (or outer) side, 2 acyl side, 3 side chain; on linkers, the order of the positions; unused ones are H or OH. Side chains are listed from the residue outwards. Peptide text beside a SMILES is read from it. * marks the point of attachment. C20 diacid = O=C(O)CCCCCCCCCCCCCCCCCCC(=O)*; γGlu = O=C(O)[C@H](CCC(=O)[*:2])N[*:1]

As usually defined, the solubility is how much of the substance goes into solution per volume. As a reminder, the pEC50 is −log10 of the EC50, conventionally taken in molar units. What is called pIC50 is −log10 of the IC50, conventionally taken in molar units. In the case of `CC(C)C[C@H](NC(=O)CNC(=O)[C@H](CO)NC(=O)[C@H](C)N)C(=O)N[C@@H](CO)C(=O)N[C@H](C(=O)N[C@@H](C)C(=O)N[C@@H](C)C(=O)N[C@@H](CC(C)C)C(=O)NCC(=O)N[C@@H](CCCNC(=N)N)C(=O)N[C@@H](CC(C)C)C(=O)N[C@@H](CO)C(=O)N[C@@H](CCC(N)=O)C(=O)N[C@@H](CCC(=O)O)C(=O)N[C@@H](CC(C)C)C(=O)N[C@@H](Cc1cnc[nH]1)C(=O)N[C@@H](CCC(=O)O)C(=O)N[C@@H](CC(C)C)C(=O)N[C@@H](CCC(N)=O)C(=O)N[C@H](C(=O)N[C@@H](Cc1ccc(O)cc1)C(=O)N1CCC[C@H]1C(=O)N[C@@H](CCCNC(=N)N)C(=O)N[C@H](C(=O)N[C@@H](CCC(=O)O)C(=O)N[C@H](C(=O)NCC(=O)N[C@@H](CO)C(=O)N[C@@H](CCCCNC(=O)CC[C@H](NC(=O)CCCCCCCCCCCCCCCCCCC(=O)O)C(=O)O)C(=O)N[C@H](C(=O)N[C@@H](Cc1ccc(O)cc1)C(N)=O)[C@@H](C)O)[C@@H](C)O)[C@@H](C)O)[C@@H](C)O)[C@@H](C)O` (H-ASGLSTAALGRLSQELHELQTYPRTETGSK([γGlu-C20 diacid])TY-NH2), the solubility at 18 h in [1], in series [4], in series [8], in series [12] and in series [14] was no less than 200 µM in each case. The negative logarithm of the EC50 (pEC50) on Calcitonin receptor [2] is 10.44; in [5], 10.17; on Calcitonin receptor [11], 9.95. Further, the values for the Activity in the series with Rattus norvegicus [3] and in the series with Rattus norvegicus [13] were 4% and -5%, respectively. The results for the negative-log IC50 (pIC50) (in series [6]; on Calcitonin receptor [9]) were 8.26 and 8.90, respectively. In addition, the Time in series [7] stood at 0.3 h. For the same compound, the remaining at 1 µM in [10] is 0%.

Consider `CC(C)C[C@H](NC(=O)[C@H](C)NC(=O)[C@H](C)NC(=O)[C@@H](NC(=O)[C@H](CO)NC(=O)[C@H](CC(C)C)NC(=O)[C@H](CCC(=O)O)NC(=O)[C@H](CO)NC(=O)[C@H](C)NC(=O)CC[C@H](NC(=O)CCCCCCCCCCCCCCCCCCC(=O)O)C(=O)O)[C@@H](C)O)C(=O)NCC(=O)N[C@@H](CCCNC(=N)N)C(=O)N[C@@H](CC(C)C)C(=O)N[C@@H](CO)C(=O)N[C@@H](C)C(=O)N[C@@H](CCC(=O)O)C(=O)N[C@@H](CC(C)C)C(=O)N[C@@H](Cc1cnc[nH]1)C(=O)N[C@@H](CCC(=O)O)C(=O)N[C@@H](CC(C)C)C(=O)N[C@@H](C)C(=O)N[C@H](C(=O)N[C@@H](CC(C)C)C(=O)N1CCC[C@H]1C(=O)N[C@@H](Cc1cnc[nH]1)C(=O)N[C@H](C(=O)N[C@@H](CCC(=O)O)C(=O)N[C@H](C(=O)NCC(=O)N[C@@H](CO)C(=O)NCC(=O)N[C@@H](CO)C(=O)N1CCC[C@H]1C(N)=O)[C@@H](C)O)[C@@H](C)O)[C@@H](C)O` ({C20 diacid-γGlu}-ASELSTAALGRLSAELHELATLPHTETGSGSP-NH2), for which the solubility at 18 h in [15], in series [16], in series [1], in [4], in [17] and in series [8] was no less than 200 µM throughout. The solubility at 18 h in [12] and in series [14] was no less than 200 µM in each case. Further, the negative-log EC50 (pEC50) on Calcitonin receptor [2] was 10.74; in series [5], 10.57; in [18], 9.73; at Calcitonin receptor [11], 10.66. The Activity in the series on Rattus norvegicus [3] is given as 55%; with Rattus norvegicus [13] it was 62%. Besides, the negative logarithm of the IC50 (pIC50) is 9.22 in series [6] and 9.35 on Calcitonin receptor [9].

In the case of `CC(C)C[C@H](NC(=O)[C@H](C)NC(=O)[C@H](C)NC(=O)[C@@H](NC(=O)[C@H](CO)NC(=O)[C@H](CC(C)C)NC(=O)[C@H](CCC(=O)O)NC(=O)[C@H](CO)NC(=O)[C@H](C)NC(=O)CC[C@H](NC(=O)CCCCCCCCCCCCCCCCCCC(=O)O)C(=O)O)[C@@H](C)O)C(=O)NCC(=O)N[C@@H](CCCNC(=N)N)C(=O)N[C@@H](CC(C)C)C(=O)N[C@@H](CO)C(=O)N[C@@H](C)C(=O)N[C@@H](CCC(=O)O)C(=O)N[C@@H](CC(C)C)C(=O)N[C@@H](Cc1cnc[nH]1)C(=O)N[C@@H](CCC(=O)O)C(=O)N[C@@H](CC(C)C)C(=O)N[C@@H](C)C(=O)N[C@H](C(=O)N[C@@H](Cc1ccc(O)cc1)C(=O)N1CCC[C@H]1C(=O)N[C@@H](CCCNC(=N)N)C(=O)N[C@H](C(=O)N[C@@H](CCC(=O)O)C(=O)N[C@H](C(=O)NCC(=O)N[C@@H](CO)C(=O)NCC(=O)N[C@@H](CO)C(=O)N1CCC[C@H]1C(N)=O)[C@@H](C)O)[C@@H](C)O)[C@@H](C)O` ({C20 diacid-γGlu}-ASELSTAALGRLSAELHELATYPRTETGSGSP-NH2), the solubility at 18 h in series [15], in [16], in series [1], in series [4], in series [17] and in series [8] was no less than 200 µM each time. For the same compound, the solubility at 18 h in series [12] and in series [14] was no less than 200 µM in each case. Also, the negative logarithm of the EC50 (pEC50) is 10.64 at Calcitonin receptor [2] and 10.17 in series [18]. In addition, the Activity was determined as 45% in the series on Rattus norvegicus [3] and 67% in the series on Rattus norvegicus [13]. Also, the negative logarithm of the IC50 (pIC50) in [19] was 8.40; in series [6], 8.58; at Calcitonin receptor [20] it was 10.15; at Calcitonin receptor [9], 8.53. For the same compound, in [7], the Time was greater than 45 h. Further, the remaining at 1 µM in series [10] came to 100%.
